Target: T1, ERRα (Homo sapiens, UniProt P11474)
T1 construct: expressed in transfected cells; host or cells: CV-1 (African green monkey kidney) cells, transient transfection with CMX-GAL4-ERRα
T1 sequence (P11474 174-423): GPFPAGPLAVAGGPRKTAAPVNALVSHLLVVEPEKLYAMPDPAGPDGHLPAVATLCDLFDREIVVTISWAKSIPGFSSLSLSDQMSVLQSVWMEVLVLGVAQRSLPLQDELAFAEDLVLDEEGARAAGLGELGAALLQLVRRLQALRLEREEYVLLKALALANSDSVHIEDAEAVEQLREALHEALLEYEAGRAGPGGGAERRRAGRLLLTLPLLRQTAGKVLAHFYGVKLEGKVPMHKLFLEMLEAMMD
Assay: GAL4-ERRα co-transfection assay (luciferase reporter, CV-1 cells)
Format: cell-based
Details: for Emax: CV-1, average percent inhibition of ERRα activity relative to control 3-[4-(2,4-Bis-trifluoromethyl-benzyloxy)-3-methoxy-phenyl]-2-cyano-N-(5-trifluoromethyl-[1,3,4]thiadiazol-2-yl)-acrylamide; for IC50: average IC50 for inverse agonist activity in the GAL4-ERRα assay, CV-1 cells
Method: Compound activity was also determined in a cell based assay using a GAL4-ERRα chimera to identify active compounds.
CMX-GAL4-ERRα was constructed by cloning nucleotides encoding amino acids 174-423 of ERRα (see GenBank sequence XM048286) into the vector pCMX-GAL4 (Perlmann et al., 1993, Genes & Development 7:1411-1422) comprising nucleotides encoding for amino acids 1-147 of the GAL4 DNA binding domain.
The TK-MH100×4-Luc (GAL4UAS-TK-Luciferase) reporter constructs were constructed by insertion of four copies of the Gal4 UAS (Kang et al. 1993, J. Biol. Chem. 268:9629-9635) into the Hind III site of TK-Luc. The parental plasmid TK-Luc was prepared by insertion of the Herpes simplex virus thymidine kinase gene promoter (−105 to +51) obtained from the plasmid pBLCAT2 by digestion with HindIII and XhoI (described in Luckow et al., 1987, Nuc. Acid. Res. 15:5490) into the plasmid MTV-LUC described by Hollenberg and Evans, 1988, Cell 55:899-906) after removal of MTV-LTR promoter sequence from MTV-LUC via digestion with HindIII and XhoI. Correct cloning was confirmed by restriction digestion and or sequencing.
Assays were performed using CV-1 (African Green Monkey Kidney Cells) (ATCC) cells at 70 percent confluency in T175 flasks grown with media containing 10% charcoal/Dextran-treated fetal bovine serum. Cells were transiently transfected with a DNA mixture containing 12 μg of CMX-GAL4-ERRα (comprising the ligand binding domain), […] of TK-MH100×4-Luc, and 2 μg of CMX-βGal using the transfection reagent FuGENE6 (Roche Molecular Biochemicals, Indianapolis, Ind.) following recommended protocols and instructions provided by the manufacturer. Following incubation with transfection reagents for 5 hours at 37° C., cells were washed, removed from the flasks with 1× Trypsin-EDTA solution (Sigma-Aldrich, Inc. St. Louis, Mo., and then resuspended in media containing 5% charcoal/Dextran-treated fetal bovine serum to give a final concentration of 1.1×10^5 cells/ml.
Assay plates were prepared by dispensing approximately 5 μl of each compound into a well of a 384 well plate to achieve a final compound concentration of approximately 10 μM after addition of cells. Cells were added to assay plates (45 μl) via the use of a Multiprop dispenser (MTX Labs, Inc., Vienna, Va.). The assay plates containing both compounds and screening cells were incubated for approximately 20 hours at 37° C. and 5% CO2 in a tissue culture incubator.
After incubation of the transfected cells with compounds, Lysis buffer (1% Triton X-100, 10% Glycerol, 5 mM DTT, 1 mM EGTA, 25 mM Tricine) and Luciferin assay buffer (0.73 mM ATP, 22.3 mM Tricine, 0.11 mM EDTA, 33.3 mM DTT, 0.2M MgSO4, 11 mM Luciferin, 6.1 mM Coenzyme A, 0.01 mM HEPES) were prepared. Media was removed from the plates and lysis buffer and luciferin assay buffer mixed in a 1:1 ratio and then 30 μl was added to each well (384-well plate). Plates were read on the Northstar (Northstar Technologies, Inc., Acton, Mass.) and data was analyzed using ActivityBase (ID Business Solutions, Ltd., Guildford, Surrey, UK). Luciferase values were normalized with β-galactosidase values using the pCMX-βGal expression plasmid, to normalize for transfection efficiency as described previously (Willy et al., 1995, Gene & Development, 9:1033-1045).
No reporter-driven luciferase activity was observed without ERR transfection, indicating the ERR-dependency of the compounds.
The following table provides in vitro ERRα activity data of representative compounds described in the Examples. Average IC50 values for inverse agonist activity in the GAL4-ERRα assay are provided as follows: V: less than 0.5 μM; W: 0.5 μM-1 μM; X: 1 μM to 2 μM and Y: 2 μM to 5 μM. Average percent inhibition with respect to ERRα activity relative to a control (3-[4-(2,4-Bis-trifluoromethyl-benzyloxy)-3-methoxy-phenyl]-2-cyano-N-(5-trifluoromethyl-[1,3,4]thiadiazol-2-yl)-acrylamide) is provided as follows. […]

Emax [%]	IC50 [nM]	Compound
100 to 120	< 500	COc1cc(C=C2SC(N3CCN(C)CC3)=NC2=O)ccc1OCc1ccc(C(F)(F)F)cc1C(F)(F)F [Example 18, 5-[1-[4-(2,4-Bis-trifluoromethyl-benzyloxy)-3-methoxy-phenyl]-methylidene]-2-(4-methyl-piperazin-1-yl)-thiazol-4-one]
80 to 100	500 to 1000	COc1cc(C=C2SC(N3CCOCC3)=NC2=O)ccc1OCc1ccc(C(F)(F)F)cc1C(F)(F)F [Example 19, 5-[1-[4-(2,4-Bis-trifluoromethyl-benzyloxy)-3-methoxy-phenyl]-methylidene]-2-morpholin-4-yl-thiazol-4-one]
100 to 120	500 to 1000	COc1cc(C=C2SC(N3CCSCC3)=NC2=O)ccc1OCc1ccc(C(F)(F)F)cc1C(F)(F)F [Example 22, 5-[1-[4-(2,4-Bis-trifluoromethyl-benzyloxy)-3-methoxy-phenyl]-methylidene]-2-thiomorpholin-4-yl-thiazol-4-one]
100 to 120	< 500	COc1cc(C=C2SC(N3CCNCC3)=NC2=O)ccc1OCc1ccc(C(F)(F)F)cc1C(F)(F)F [Example 23, 5-[1-[4-(2,4-Bis-trifluoromethyl-benzyloxy)-3-methoxy-phenyl]-methylidene]-2-piperazin-1-yl-thiazol-4-one]
100 to 120	< 500	COc1cc(C=C2SC(N3CCN(S(C)(=O)=O)CC3)=NC2=O)ccc1OCc1ccc(C(F)(F)F)cc1C(F)(F)F [Example 29, 5-[1-[4-(2,4-Bis-trifluoromethyl-benzyloxy)-3-methoxy-phenyl]-methylidene]-2-(4-methanesulfonyl-piperazin-1-yl)-thiazol-4-one]

More lines, now with the values behind:

Compound	Emax [%]	IC50 [nM]
COc1cc(C=C2SC(N3CC(C)OC(C)C3)=NC2=O)ccc1OCc1ccc(C(F)(F)F)cc1C(F)(F)F (stereo not shown) [5-[1-[4-(2,4-Bis-trifluoromethyl-benzyloxy)-3-methoxy-phenyl]-methylidene]-2-(2,6-dimethyl-morpholin-4-yl)-thiazol-4-one]	100 to 120	1000 to 2000
COc1cc(C=C2SC(N3CCCC3c3ccccn3)=NC2=O)ccc1OCc1ccc(C(F)(F)F)cc1C(F)(F)F (stereo not shown) [5-[1-[4-(2,4-Bis-trifluoromethyl-benzyloxy)-3-methoxy-phenyl]-methylidene]-2-(2-pyridin-2-yl-pyrrolidin-1-yl)-thiazol-4-one]	100 to 120	< 500
CCCCCN1CCN(C2=NC(=O)C(=Cc3ccc(OCc4ccc(C(F)(F)F)cc4C(F)(F)F)c(OC)c3)S2)CC1 [5-[1-[4-(2,4-Bis-trifluoromethyl-benzyloxy)-3-methoxy-phenyl]-methylidene]-2-(4-pentyl-piperazin-1-yl)-thiazol-4-one]	80 to 100	2000 to 5000
COc1cc(C=C2SC(N3CCCC(c4nc5cc(C)ccc5[nH]4)C3)=NC2=O)ccc1OCc1ccc(C(F)(F)F)cc1C(F)(F)F (stereo not shown) [5-[1-[4-(2,4-Bis-trifluoromethyl-benzyloxy)-3-methoxy-phenyl]-methylidene]-2-[3-(5-methyl-1H-benzoimidazol-2-yl)-piperidin-1-yl]-thiazol-4-one]	80 to 100	1000 to 2000
COc1cc(C=C2SC(N3CCN(CC4CCN(C)CC4)CC3)=NC2=O)ccc1OCc1ccc(C(F)(F)F)cc1C(F)(F)F [5-[1-[4-(2,4-Bis-trifluoromethyl-benzyloxy)-3-methoxy-phenyl]-methylidene]-2-[4-(1-methyl-piperidin-4-ylmethyl)-piperazin-1-yl]-thiazol-4-one]	80 to 100	500 to 1000
COc1cc(C=C2SC(N3CCN(Cc4ccc(Cl)cc4)CC3)=NC2=O)ccc1OCc1ccc(C(F)(F)F)cc1C(F)(F)F [5-[1-[4-(2,4-Bis-trifluoromethyl-benzyloxy)-3-methoxy-phenyl]-methylidene]-2-[4-(4-chloro-benzyl)-piperazin-1-yl]-thiazol-4-one]	60 to 80	2000 to 5000
